According to patent publication US20250066452A1, “SYNTHETIC AMPHIPATHIC HELICAL PEPTIDES AND TREATMENT METHODS USING SYNTHETIC AMPHIPATHIC HELICAL PEPTIDES” (UNIVERSITY OF MARYLAND, BALTIMORE, priority 2022, published 2025):
No end group written: not given here.

Experiments:
mice = assay: Observation of adverse effects on repetitive daily skin application; assay type: in vivo
[1] = test system: Complete Freund's Adjuvant (CFA) animal model of chronic inflammatory pain; assay: Thermal hyperalgesia test (incremental hot plate) in CFA model of chronic inflammatory pain; assay type: in vivo, mice; settings: for heat hyperalgesia compared to the inactive L3D-L37pA peptide: Example 3, FIGS. 5(a)-5(e), topical application once a day; for withdrawal latencies to thermal stimuli: CFA in left paw
Procedure: The L37pA peptide having the sequence […] (SEQ ID NO: 2) was synthesized by a solid-phase procedure. […] The L37pA and L3D-37pA peptides were formulated into both an intramuscular injectable preparation and a hydrogel or lotion preparation. The intramuscular (IM) injectable formulation contains 0.5 μg/μl of the peptide, with an injection dose of 2 μl/g mouse weight, which equals approximately 20 μg peptide per injection. The hydrogel and lotion formulations each contains 0.2 mg/ml of the peptide. 20-50 μl of the formulations are applied, which is approximately 4-10 μg peptide per single skin treatment. Topical hydrogel and lotion formulations containing a vehicle without any peptide were prepared as additional negative controls.
In this experiment, the peptide was administered via intramuscular injections. The first group of mice (“CFA group”) were injected with 30 μl of Complete Freund's Adjuvant (CFA) in the plantar surface of the left hind paw. The second group of mice (“Vehicle Group”) were injected with Vehicle (saline) instead of CFA. For each of the CFA and Vehicle Groups, the mice were then injected once a day with the following formulations, with “n” representing the number of mice receiving each formulation: […]
Thermal hyperalgesia was performed before the CFA injection. The measurement of baseline thermosensitivity was actually carried out before time 0, but it was assumed that the baseline remained the same at time 0. Injection of CFA in the paw and the intramuscular injection of peptide were performed at the same time. Injections of CFA and peptides were performed in left paws. The right paws of the mice remained intact and were used for comparison.
After administering the L37pA or L3D-37pA peptide, the thermal hyperalgesia test was performed for 30 minutes at 3, 24, and 72 hours post CFA-injection. In the thermal hyperalgesia test, an incremental hot plate with an automatic cut-off temperature of 50° C. was used to induce the nocifensive behaviors of licking a hind paw to identify the thresholds for noxious heat and assess the thermal hyperalgesia. The temperature of the plate at the time when the licking occurred was recorded. The peptides were injected every single day and at 30 minutes prior to the behavior test. In addition, to investigate the effects of the peptides on inflammatory swelling caused by the CFA injection, the thicknesses of the left and right hind paws of the mice were measured post-peptide administration for signs of inflammation. In the figures, *p≤0.05, **p≤0.01, and ***p≤0.001 show comparisons to the Vehicle/L3D-37pA controls at each timepoint.
In this experiment, the peptide was administered topically once a day. The first group of mice (“CFA group”) were injected with 30 μl of Complete Freund's Adjuvant (CFA) in the plantar surface of the left hind paw. The second group of mice (“Vehicle Group”) were injected with Vehicle (saline) instead of CFA. For each of the CFA and Vehicle groups, the topical formulation was then administered to the mice according to the following experiment design:
The topical application of the peptides was carried out 21 hours after the saline or CFA injection and applied […] in the following days. In case of topical application of peptide, the peptides were applied 3 hours before the second measurement of thermosensitivity and applied […] afterwards. Thermal hyperalgesia was performed before administration and after administering the L37pA, L3D-37 pA, or vehicle, at 30 minutes after administration. The thermal hyperalgesia test was performed as described above. In addition, the thicknesses of the left and right hind paws of the mice were measured post-peptide administration for signs of inflammation. In the figures, *p 0.05, **p 0.01, and ***p 0.001 show comparisons to the saline/L3D-37pA controls at each timepoint.
The applicant performed heat hyperalgesia tests similar to the manner discussed above in Example 1. […]

CD36 = target: T1, CD36 (Homo sapiens, UniProt P16671); assay: IL-8 in conditioned medium (ELISA) of CD36-expressing HEK293 cells after 20 hours incubation with CD36 ligands; assay type: cell-based; settings: for IL-8 produced by cells treated with the ligand: CD36-expressing HEK293 cells, increasing ligand concentrations, 20 hours (FIG. 8)
T1 construct: expressed in transfected cells; host or cells: HEK293
T1 sequence (P16671 whole entry): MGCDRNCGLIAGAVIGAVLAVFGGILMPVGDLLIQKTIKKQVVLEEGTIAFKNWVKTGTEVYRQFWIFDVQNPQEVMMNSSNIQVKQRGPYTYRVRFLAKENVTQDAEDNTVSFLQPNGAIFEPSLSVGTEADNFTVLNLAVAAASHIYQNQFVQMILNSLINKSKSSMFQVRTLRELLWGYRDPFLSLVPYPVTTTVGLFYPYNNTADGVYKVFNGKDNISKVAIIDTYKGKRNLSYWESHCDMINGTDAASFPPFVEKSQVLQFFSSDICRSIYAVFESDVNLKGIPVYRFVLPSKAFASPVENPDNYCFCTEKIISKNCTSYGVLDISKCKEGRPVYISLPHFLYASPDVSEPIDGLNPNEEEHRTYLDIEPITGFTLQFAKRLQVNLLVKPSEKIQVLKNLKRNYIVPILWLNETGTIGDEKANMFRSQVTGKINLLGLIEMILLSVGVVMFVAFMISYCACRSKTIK
Procedure: (§1) Following 20 hours incubation of wild-type (WT) and CD36-expressing (CD36+) HEK293 cells with increasing concentrations of CD36 ligands, the IL-8 levels were determined in conditioned medium by ELISA.
Following 20 hours incubation of CD36-expressing cells with the indicated amounts of the ligands, the IL-8 levels were determined in conditioned medium.
(§2) To study this, the applicant conducted cell culture experiments using wildtype (WT) and CD36+ expressing (CD36+) HEK293 cells, treated with increasing amounts of CD36 ligands. Specifically, the ligands tested were the PAMP lipopolysaccharide (LPS) and the DAMPs high mobility group box 1 protein (HMGB1), Histone H3B, and heat shock protein 60 (HSP60). […] Similarly to HSP60, it is presumed that HSP70 and HSP90 also cause inflammation mediated by the CD36 receptor, and which may be alleviated by the disclosed peptides.
Additionally, the applicant studied the effects of the above-referenced SAHP L37pA as an inhibitor of CD36-dependent, PAMP/DAMP-induced pro-inflammatory response. See FIGS. 9(a)-9(c) To study this, the applicant conducted cell culture experiments using CD36+ HEK293 cells, treated with increasing amounts of CD36 ligands. […] As controls, no treatment, L37pA alone, and L3D alone were administered.
As controls, no treatment, L37pA alone, and L3D alone were administered. […] L37pA was especially effective in the case of 1 μg/ml and 2.5 μg/ml HMGB1, relative to administrations of HMGB1 alone.
In FIG. 9(c), the DAMP Histone H3B was administered in the amount of 25 μg/ml alone, in combination with 10 μg/ml L37pA, 25 μg/ml L37pA, 10 μg/ml L3D and 25 µg/ml L3D. As controls, no treatment, 10 μg/ml L37pA alone, 25 μg/ml L37pA alone, 10 μg/ml L3D alone, and 25 μg/ml L3D alone were administered.

[2] = test system: wild-type (WT) HEK293 cells; assay: IL-8 in conditioned medium (ELISA) of wild-type HEK293 cells after 20 hours incubation with CD36 ligands; assay type: cell-based; settings: wildtype HEK293 cells; increasing ligand concentrations; 20 hours (FIG. 8)
Procedure: as §1, §2

Substance: DWLKAFYDKVAEKLKEAFPDWLKAFYDKVAEKLKEAF [Peptide L37pA]
- skin irritation or other adverse side effects (mice; chronic topical administration in the therapeutic range of doses): does not induce skin irritation or other adverse side effects
- adverse effects (general toxicity, behavioral changes, weight loss, skin redness, skin erosions) (mice; up to 14 repetitive daily skin applications of hydrogel formulation): no adverse effects

Substance: EKLLELLKKLLELLKKLLPDWLKAFYDKVAEKLKEAF [ELK-B-P-18A]
- heat hyperalgesia compared to the inactive L3D-L37pA peptide ([1]; CFA): improved heat hyperalgesia compared to the inactive L3D-L37pA peptide at 3 hours, and particularly improved heat hyperalgesia at 7 days

Substance: EKLLELLKKLLELLKKLLPEKLLELLKKLLELLKKLL [ELK-B]
- heat hyperalgesia compared to the inactive L3D-L37pA peptide ([1]; CFA): slightly improved heat hyperalgesia compared to the active L3D-L37pA peptide at 1 day, and similar heat hyperalgesia at other timepoints

Substance: L3D-37pA: inactive L37pA peptide where three L-lysine's in each A18 were replaced with D-lysine's disrupting the helical structure; negative control (DWLKAFYDKVAEKLKEAFPDWLKAFYDKVAEKLKEAF; also: three of the four Lys in each A18 segment are D-Lys, places not given here) [Peptide L3D-37pA]
- production of IL-8 relative to LPS alone (CD36; 10 ng/ml and 100 ng/ml LPS, 10 μg/ml peptide, CD36+ HEK293 cells, 20 hours): ineffective or only slightly effective
- production of IL-8 relative to Histone H3B alone (CD36; 25 μg/ml Histone H3B, 10 μg/ml and 25 μg/ml peptide, CD36+ HEK293 cells, 20 hours): ineffective or only slightly effective
- production of IL-8 relative to HMGB1 alone (CD36; 0.25, 1 and 2.5 μg/ml HMGB1, 10 μg/ml peptide, CD36+ HEK293 cells, 20 hours): ineffective or only slightly effective
- withdrawal latencies to thermal stimuli ([1]; intramuscular peptide approx. 20 μg per injection once a day, 3 hours after CFA (FIG. 2(a))): reduction was even more exaggerated
- withdrawal latencies to thermal stimuli ([1]; intramuscular peptide approx. 20 μg per injection once a day, 24 hours after CFA (FIG. 2(a))): only showed a minimal increase
- withdrawal latencies to thermal stimuli ([1]; intramuscular peptide approx. 20 μg per injection once a day, three days after CFA (FIG. 2(a))): still showed a significant reduction of withdrawal latencies
- withdrawal latencies to thermal stimuli ([1]; topical application 0.2 mg/ml, 24 hours and 3 days after CFA (FIG. 3(a))): remained reduced with only slight increase
- pain sensation in response to stimuli ([1]; CFA model, topical hydrogel or lotion, and local intramuscular injection): did not show any pain-reducing activities
- paw withdrawal temperature of inflamed paws ([1]; CFA, topical hydrogel or local intramuscular injection, within 3 days post-CFA (FIGS. 2(a), 3(a))): without effect
- heat hyperalgesia (response temperature) ([1]; Example 2, FIG. 4, CFA, intramuscular injection, 24 h, 3 d, 7 d): did not reduce heat hyperalgesia at any time point

Substance: high mobility group box 1 protein [HMGB1]
- IL-8 produced by cells treated with the ligand [2]: minimal amount of interleukin 8
- IL-8 produced by cells treated with the ligand (CD36): significant amount of IL-8

Substance: lipopolysaccharide [LPS]
- IL-8 produced by cells treated with the ligand [2]: minimal amount of interleukin 8
- IL-8 produced by cells treated with the ligand (CD36): significant amount of IL-8
